System: artificial myocardial structure (cardiac organoid)
Test: contractile force-based cardiac toxicity assessment using the artificial myocardial structure
Format: cell-based, human
Excerpt: Furthermore, after additionally treating an artificial myocardial structure prepared by coculturing gelatin oil capsules and cardiomyocytes with various drugs, contractile forces of the drug-treated artificial myocardial structure were checked.

Structure (SMILES)	beat rates (group treated with 10 nM)	contractile forces (group treated with 10 nM)	beat rates (group treated with 125 nM)
CC(C)NCC(O)c1ccc(O)c(O)c1 (stereo not drawn) [Isopreterenol]	accelerated	changed strongly	–
COc1ccc(CCN(C)CCCC(C#N)(c2ccc(OC)c(OC)c2)C(C)C)cc1OC (stereo not drawn) [verapamil]	–	–	slow down and become somewhat irregular

Reference: patent publication US12325867B2, “Organoid produced using carrier for cell culture, and method for evaluating drug toxicity using same” (Korea Research Institute of Chemical Technology, priority 2018, dated 2025)
